For experiment [1], the system named is human gastric cancer cell line MKN-28. Description: MKN-28 growth inhibition assay. Particulars: 3 days incubation, CellTiter-Glo. The class given is cell-based. As for the experimental part:
(§1) In this assay, the growth inhibitory activities of test compounds in human gastric cancer cell lines NCI-N87 and MKN-28 were measured, respectively. NCI-N87 and MKN-28 cells were maintained in RPMI-1640 medium containing 10% FBS, penicillin and streptomycin in a 5% CO2 incubator (37° C.). To each well of a 96-well plate (Becton, Dickinson and Company, 353219), 100 μL of NCI-N87 or MKN-28 cell suspension adjusted to a concentration of 3×10^4 cells/mL with the culture medium was added, and the cells were incubated overnight in a 5% CO2 incubator (37° C.). On the next day, 100 μL of Compound (1) or Halichondrin B in three-fold dilution series suspended in the culture medium was added to each well, and the resultant was incubated for 3 days in a 5% CO2 incubator (37° C.). Then, cell viability was determined by CellTiter-Glo® Luminescent Cell Viability Assay (Promega) with EnVision 2103 Multilabel Reader (Perkin-Elmer, Wellesley, Mass.). Value of the wells containing cells without adding the test compounds was defined as 100% and the value of the wells containing no cells was defined as 0%. The concentrations of the test compound necessary for inhibiting the cell growth by 50% (i.e., an IC50 value) were calculated and are shown in Table 14.
(In general: Cellular ATP, detected with luciferase, serves as a proxy for viable cell number.)

Experiment [2] relates to FaDu subcutaneous xenograft. Description: Antitumor effects in FaDu subcutaneous xenograft model in mice as monotherapy. The format is in vivo. As for the experimental part:
A human squamous cell carcinoma of the head and neck (SCCHN) cell line FaDu, which had been cultured in an RPMI-1640 medium containing 10% FBS, and penicillin and streptomycin, was adjusted to a concentration of 4.8×10^7 cells/mL with Hanks' Balanced Salt Solution to prepare a cell suspension. The cell suspension was inoculated in a volume of 100 μL into a subcutaneous part of a right flank of nude mice, 7 weeks of ages (CAnN.Cg-Foxn1nu/CrlCrlj, female, Charles River Laboratories Japan Inc.).
On the basis of the volumes of tumors obtained on the first day of administration, the mice were grouped such that averages of the tumor volumes were substantially equal among the groups. Each test compound was dissolved in DMSO and a solution was stored at the freezer before use. Immediately before the administration, the stock solution was diluted in saline with 100 μM of hydroxypropyl-β-cyclodextrin. Each evaluation sample was intravenously administered at a maximum tolerable dose (MTD). Incidentally, the experiment was conducted on groups each consisting of 4 mice.

The test system of experiment [3] is human small bowel cancer cell line HuTu 80. Description: HuTu 80 growth inhibition assay. Particulars: 3 days incubation, CellTiter-Glo. The format is cell-based. How it is done: In this assay, the growth inhibitory activities of test compounds in the human small bowel cancer cell line HuTu 80, which was isolated from duodenal tissue were measured. HuTu 80 cells were maintained in EMEM medium containing 10% FBS, penicillin and streptomycin in a 5% CO2 incubator (37° C.). To each well of a 96-well plate (Becton, Dickinson and Company, 353219), 100 μL of a HuTu80 cell suspension adjusted to a concentration of 3×10^4 cells/mL with the culture medium was added, and the cells were incubated overnight in a 5% CO2 incubator (37° C.). On the next day, 100 μL of Compound (1) or Halichondrin B in three-fold dilution series suspended in the culture medium was added to each well, and the resultant was incubated for 3 days in a 5% CO2 incubator (37° C.). Then, cell viability was determined by CellTiter-Glo® Luminescent Cell Viability Assay (Promega) with EnVision 2103 Multilabel Reader (Perkin-Elmer, Wellesley, Mass.). Value of the wells containing cells without adding the test compounds was defined as 100% and the value of the wells containing no cells was defined as 0%. The concentrations of the test compounds necessary for inhibiting the cell growth by 50% (i.e., an IC50 value) were calculated and are shown in Table 15.

Experiment [4] has as its system CD31-positive vessel in the FaDu subcutaneous model. Description: Effect on CD31-positive vessel in the FaDu subcutaneous model in mice (Test Example 9). The format is in vivo. Particulars: five days after administration. As for the experimental part:
A human squamous cell carcinoma of the head and neck (SCCHN) cell line FaDu, which had been cultured in an RPMI-1640 medium containing 10% FBS, and penicillin and streptomycin, was adjusted to a concentration of 5×10^7 cells/mL with PBS to prepare a cell suspension. The cell suspension was inoculated in a volume of 100 μL into a subcutaneous part of a right flank of nude mice, 7 weeks of ages (CAnN.Cg-Foxnlnu/CrlCrlj, female, Charles River Laboratories Japan, Inc.). Ten days after cell inoculation, a test compound in saline with 100 μM of hydroxypropyl-β-cyclodextrin was intravenously administered at doses from ½ MTD to MTD. The experiment was conducted on groups each consisting of 3 mice. Five days after administration, tumor samples were collected and fixed with IHC Zinc Fixative (BD Pharmingen) at 4° C. for 24 hr. Paraffin-embedded tissues were sectioned (3 μm), mounted on positively charged slides, and air-dried. Immunohistochemical staining of CD31 was conducted using Ventana autostainer model Discover XT (Roche Diagnostics) according to the manufacture's protocol. Sections were deparaffinized, conditioned and the antigens were retrieved with CC1 (Ventana Medical Systems). Slides were blocked with Blocker A and Blocker B (Endogenous biotin blocking kit, Roche Diagnostics). Rat anti-mouse IgG CD31 antibody (Dianova GmbH) was applied at 2 μg/mL. […]
Immunostained slides were scanned using Vectra 2 Automated Slide Imaging System (Perkin Elmer Inc.). The number of blood vessels in the whole tumor was quantified by counting the CD31-positive objects using inForm 2 software (PerkinElmer Inc.) Area of the tumor region was measured by assessing the hematoxylin-staining area using inform 2 software (PerkinElmer Inc.) The number of blood vessels was normalized by the area of the tumor region. An increase rate of the blood vessel number of the test compound-dosing group was calculated with the below formula, and shown in Table 9. […]

The subject of experiment [5] is human gastric cancer cell line NCI-N87. Description: NCI-N87 growth inhibition assay. The class given is cell-based. Particulars: 3 days incubation, CellTiter-Glo. How it is done:
as §1

One may read the IC50 as the concentration at which inhibition is half-maximal. The low end stands for higher potency, the high end for lower potency. As to `C=C1C[C@@H]2CC[C@@]34C[C@H]5O[C@H]6[C@@H](O3)[C@H]3O[C@H](CC[C@@H]3O[C@H]6[C@H]5O4)CC(=O)O[C@@H]3[C@@H](C)[C@@H]4O[C@@H]5C[C@]6(C[C@@H]7O[C@]8(C[C@H](C)[C@@H]9O[C@H]([C@@H](O)C[C@@H](O)CO)C[C@@H]9O8)C[C@H](C)[C@@H]7O6)O[C@@H]5C[C@@H]4O[C@H]3C[C@H]3O[C@@H](CC[C@@H]1O2)C[C@@H](C)C3=C` [Halichondrin B, reference compound], the IC50 in experiment [1] is 0.017 nM; in experiment [3], 0.031 nM; in experiment [5], 0.007 nM. Further, in experiment [2] (0.05 mg/kg intravenously (MTD)), the “Tumor Regression (%)” value stood at 0%. Moreover, the “Increase rate of blood vessel number (%)” value came out at 31% in experiment [4] (0.025 mg/kg intravenously) and 39% in experiment [4] (0.05 mg/kg intravenously).
In the case of `C=C1C[C@@H]2CC[C@@]34C[C@H]5O[C@H]6[C@@H](O3)[C@H]3O[C@H](CC[C@@H]3O[C@H]6C5O4)CC(=O)O[C@@H]3[C@@H](C)[C@@H]4O[C@@H]5C[C@]6(C[C@@H]7O[C@]8(C[C@H](C)[C@@H]9O[C@H](CN)[C@H](O)C[C@@H]9O8)C[C@H](C)[C@@H]7O6)O[C@@H]5C[C@@H]4O[C@H]3C[C@H]3O[C@@H](CC[C@@H]1O2)C[C@@H](C)C3=C` [Compound (1)], the IC50 in experiment [1] came out at 0.015 nM; in experiment [3] it was 0.019 nM; in experiment [5], 0.002 nM. For the same compound, the “Tumor Regression (%)” value in experiment [2] (0.2 mg/kg intravenously (MTD)) was found to be 43%. Besides, in experiment [4] (0.10 mg/kg intravenously), the “Increase rate of blood vessel number (%)” value is reported as 69%.

Source of the values: patent publication US11725015B2, “Macrocyclic compound and uses thereof” (President and Fellows of Harvard College, priority 2017, dated 2023).
